Tests used:
Type in all cases: cell-based, human
NCI-H358 (K-Ras G12C) = test: CellTiter-Glo cell viability assay, H358; details: Homo sapiens, NCI-H358, 120 h, read-out: H358 Cell Viability IC50, K-Ras G12C, 5-day treatment
Procedure: (§1) Note—The following protocol describes a procedure for monitoring cell viability of K-Ras mutant cancer cell lines in response to a compound of the invention. Other RAS isoforms may be employed, though the number of cells to be seeded will vary based on cell line used.
(§2) Test compounds (132.5 nL) were directly dispensed into the assay plates containing cells. […] On day 5, assay plates and their contents were equilibrated to room temperature for approximately 30 minutes. […] Luminescence was measured using the PerkinElmer Enspire. Data were normalized by the following: (Sample signal/Avg. DMSO)*100. The data were fit using a four-parameter logistic fit.

AsPC-1 (K-Ras G12D) [1] = test: Potency assay: pERK; details: Homo sapiens, ASPC1, read-out: pERK EC50
Procedure: The purpose of this assay is to measure the ability of test compounds to inhibit K-Ras in cells. […] This procedure measures a decrease in cellular pERK in response to test compounds. The procedure described below in NCI-H358 cells is applicable to K-Ras G12C.
NCI-H358 cells were grown and maintained using media and procedures recommended by the ATCC. On the day prior to compound addition, cells were plated in 384-well cell culture plates (40 μl/well) and grown overnight in a 37° C., 5% CO2 incubator. Test compounds were prepared in 10, 3-fold dilutions in DMSO, with a high concentration of 10 mM. On the day of assay, 40 nL of test compound was added to each well of cell culture plate using an Echo550 liquid handler (LabCyte®). Concentrations of test compound were tested in duplicate. After compound addition, cells were incubated 4 hours at 37° C., 5% CO2. Following incubation, culture medium was removed and cells were washed once with phosphate buffered saline.
In some experiments, cellular pERK level was determined using the AlphaLISA SureFire Ultra p-ERK1/2 Assay Kit (PerkinElmer). Cells were lysed in 25 μL lysis buffer, with shaking at 600 RPM at room temperature. Lysate (10 μL) was transferred to a 384-well Opti-plate (PerkinElmer) and 5 μL acceptor mix was added. After a 2-hour incubation in the dark, 5 μL donor mix was added, plate was sealed, and incubated 2 hours at room temperature. Signal was read on an Envision plate reader (PerkinElmer) using standard AlphaLISA settings. Analysis of raw data was carried out in Excel (Microsoft) and Prism (GraphPad). Signal was plotted vs. the decadal logarithm of compound concentration, and IC50 was determined by fitting a 4-parameter sigmoidal concentration response model.
In other experiments, cellular pERK was determined by In-Cell Western. Following compound treatment, cells were washed twice with 200 μL tris buffered saline (TBS) and fixed for 15 minutes with 150 μL 4% paraformaldehyde in TBS. Fixed cells were washed 4 times for 5 minutes with TBS containing 0.1% Triton X-100 (TBST) and then blocked with 100 μL Odyssey blocking buffer (LI-COR) for 60 minutes at room temperature. Primary antibody (PERK, CST-4370, Cell Signaling Technology) was diluted 1:200 in blocking buffer, and 50 μL was added to each well and incubated overnight at 4° C. Cells were washed 4 times for 5 minutes with TBST. Secondary antibody (IR-800CW rabbit, LI-COR, diluted 1:800) and DNA stain DRAQ5 (LI-COR, diluted 1:2000) were added and incubated 1-2 hours at room temperature. Cells were washed 4 times for 5 minutes with TBST. Plates were scanned on a Li—COR Odyssey CLx Imager. Analysis of raw data was carried out in Excel (Microsoft) and Prism (GraphPad). Signal was plotted vs. the decadal logarithm of compound concentration, and IC50 was determined by fitting a 4-parameter sigmoidal concentration response model.

AsPC-1 (K-Ras G12D) [2] = test: CellTiter-Glo cell viability assay, AsPC-1; details: Homo sapiens, ASPC1, 120 h, read-out: AsPC-1 Cell Viability IC50
Procedure: as §1, §2

Row | SMILES | IC50 (NCI-H358 (K-Ras G12C)) | EC50 (AsPC-1 (K-Ras G12D) [1]) | IC50 (AsPC-1 (K-Ras G12D) [2])
1 | CCn1c(-c2cnccc2COC)c2c3cc(ccc31)-c1cc(O)cc(c1)C[C@H](NC(=O)[C@H](C(C)C)N(C)C(=O)CN(C)C(=O)[C@H]1CN1)C(=O)N1CCC[C@H](N1)C(=O)OCC(C)(C)C2 [Example 7, (2R)—N-(2-(((2S)-1-(((6^3S,4S)-1^1-ethyl-25-hydroxy-1^2-(4-(methoxymethyl)pyridin-3-yl)-10,10-dimethyl-5,7-dioxo-6^1,6^2,6^3,6^4,6^5,6^6-hexahydro-1^1H-8-oxa-1 (5,3)-indola-6 (1,3)-pyridazina-2 (1,3)-benzenacycloundecaphane-4-yl)amino)-3-methyl-1-oxobutan-2-yl) (methyl)amino)-2-oxoethyl)-N-methylaziridine-2-carboxamide] | 10 to 100 nM | < 5000 nM | 100 to 1000 nM
2 | CCn1c(-c2cnccc2COC)c2c3cc(ccc31)-c1cc(O)cc(c1)C[C@H](NC(=O)[C@H](C(C)C)N(C)C(=O)CN(C)C(=O)[C@H]1CN1Cc1ccccc1)C(=O)N1CCC[C@H](N1)C(=O)OCC(C)(C)C2 (stereo partly drawn) [Example 9] | 10 to 100 nM | < 5000 nM | 1000 to 10000 nM
3 | CCn1c(-c2cnccc2COC)c2c3cc(ccc31)-c1cc(O)cc(c1)C[C@H](NC(=O)[C@H](C(C)C)N(C)C(=O)CN(C)C(=O)[C@@H]1CN1Cc1ccccc1)C(=O)N1CCC[C@H](N1)C(=O)OCC(C)(C)C2 (stereo partly drawn) [Example 10] | 10 to 100 nM | < 5000 nM | 1000 to 10000 nM
4 | CCn1c(-c2cnccc2COC)c2c3cc(ccc31)-c1cc(O)cc(c1)C[C@H](NC(=O)[C@H](C(C)C)N(C)C(=O)CN(C)C(=O)C1CN1)C(=O)N1CCC[C@H](N1)C(=O)OCC(C)(C)C2 (stereo partly drawn) [Example 33] | 10 to 100 nM | < 5000 nM | 
5 | CCn1c(-c2cnccc2COC)c2c3cc(ccc31)-c1cc(O)cc(c1)C[C@H](NC(=O)[C@H](C(C)C)N(C)C(=O)CN(C)C(=O)[C@@H]1N[C@@H]1C(=O)OC)C(=O)N1CCC[C@H](N1)C(=O)OCC(C)(C)C2 [Example 49, methyl (2S,3R)-3-((2-(((2S)-1-(((6^3S,4S)-1^1-ethyl-25-hydroxy-1^2-(4-(methoxymethyl)pyridin-3-yl)-10,10-dimethyl-5,7-dioxo-6^1,6^2,6^3,6^4,6^5,6^6-hexahydro-1^1H-8-oxa-1 (5,3)-indola-6 (1,3)-pyridazina-2 (1,3)-benzenacycloundecaphane-4-yl)amino)-3-methyl-1-oxobutan-2-yl) (methyl)amino)-2-oxoethyl) (methyl)carbamoyl) aziridine-2-carboxylate] | 1000 to 10000 nM | < 5000 nM | 1000 to 10000 nM
6 | CCn1c(-c2cccnc2[C@H](C)OC)c2c3cc(ccc31)-c1cc(O)cc(c1)C[C@H](NC(=O)[C@H](C(C)C)N(C)C(=O)CN(C)C(=O)[C@@H]1N[C@H]1COC)C(=O)N1CCC[C@H](N1)C(=O)OCC(C)(C)C2 [Example 85] | 10 to 100 nM | < 5000 nM | 1000 to 10000 nM
7 | CCn1c(-c2cccnc2[C@H](C)OC)c2c3cc(ccc31)-c1cc(O)cc(c1)C[C@H](NC(=O)[C@H](C(C)C)N(C)C(=O)CN(C)C(=O)C1CN1CCOC)C(=O)N1CCC[C@H](N1)C(=O)OCC(C)(C)C2 (stereo partly drawn) [Example 90] | < 10 nM | < 5000 nM | 100 to 1000 nM
8 | CCn1c(-c2cccnc2[C@H](C)OC)c2c3cc(ccc31)-c1cc(O)cc(c1)C[C@H](NC(=O)[C@H](C1CCCC1)N(C)C(=O)CN(C)C(=O)[C@H]1CN1)C(=O)N1CCC[C@H](N1)C(=O)OCC(C)(C)C2 [Example 95, (2R)—N-(2-(((1S)-1-cyclopentyl-2-(((6^3S,4S)-1^1-ethyl-25-hydroxy-1^2-(2-((S)-1-methoxyethyl)pyridin-3-yl)-10,10-dimethyl-5,7-dioxo-61,62,63,64,65,66-hexahydro-1^1H-8-oxa-1 (5,3)-indola-6 (1,3)-pyridazina-2 (1,3)-benzenacycloundecaphane-4-yl)amino)-2-oxoethyl) (methyl)amino)-2-oxoethyl)-N-methylaziridine-2-carboxamide] | < 10 nM | < 5000 nM | 10 to 100 nM
9 | CCn1c(-c2cccnc2[C@H](C)OC)c2c3cc(ccc31)-c1cc(O)cc(c1)C[C@H](NC(=O)[C@H](C(C)C)N(C)C(=O)[C@H](C)N(C)C(=O)[C@H]1CN1)C(=O)N1CCC[C@H](N1)C(=O)OCC(C)(C)C2 [Example 102] | 10 to 100 nM | < 5000 nM | 100 to 1000 nM
10 | CCn1c(-c2cccnc2[C@H](C)OC)c2c3cc(ccc31)-c1cccc(c1)C[C@H](NC(=O)[C@H](C(C)C)N(C)C(=O)CN(C)C(=O)[C@H]1CN1)C(=O)N1CCC[C@H](N1)C(=O)OCC(C)(C)C2 [Example 107] | 100 to 1000 nM | < 5000 nM | 1000 to 10000 nM
11 | CCn1c(-c2cccnc2[C@H](C)OC)c2c3cc(ccc31)-c1cc(O)cc(c1)C[C@H](NC(=O)[C@H](C(C)C)N(C)C(=O)CN(C)C(=O)[C@H]1CN1CCCN1CCCC1=O)C(=O)N1CCC[C@H](N1)C(=O)OCC(C)(C)C2 (stereo partly drawn) [Example 268, (2R)—N-(2-(((2S)-1-(((6^3S,4S)-1^1-ethyl-25-hydroxy-1^2-(2-((S)-1-methoxyethyl)pyridin-3-yl)-10,10-dimethyl-5,7-dioxo-6^1,6^2,6^3,6^4,6^5,6^6-hexahydro-1^1H-8-oxa-1 (5,3)-indola-6 (1,3)-pyridazina-2 (1,3)-benzenacycloundecaphane-4-yl)amino)-3-methyl-1-oxobutan-2-yl) (methyl)amino)-2-oxoethyl)-N-methyl-1-(3-(2-oxopyrrolidin-1-yl)propyl) aziridine-2-carboxamide] |  | < 5000 nM | 1000 to 10000 nM
12 | CCn1c(-c2cccnc2[C@H](C)OC)c2c3cc(ccc31)-c1cc(O)cc(c1)C[C@H](NC(=O)[C@H](C(C)C)N(C)C(=O)CN(C)C(=O)[C@@H]1CN1CC(=O)N(C)C)C(=O)N1CCC[C@H](N1)C(=O)OCC(C)(C)C2 (stereo partly drawn) [Example 271] |  | < 5000 nM | > 10000 nM
13 | CCn1c(-c2cccnc2[C@H](C)OC)c2c3cc(ccc31)-c1cc(O)cc(c1)C[C@H](NC(=O)[C@H](C(C)C)N(C)C(=O)CN(C)C(=O)[C@H]1CN1CCCN1CCOC1=O)C(=O)N1CCC[C@H](N1)C(=O)OCC(C)(C)C2 (stereo partly drawn) [Example 272] |  | < 5000 nM | 1000 to 10000 nM
14 | CCn1c(-c2cccnc2[C@H](C)OC)c2c3cc(ccc31)-c1cc(O)cc(c1)C[C@H](NC(=O)[C@H](C(C)C)N(C)C(=O)CN(C)C(=O)[C@H]1CN1C1COC1)C(=O)N1CCC[C@H](N1)C(=O)OCC(C)(C)C2 (stereo partly drawn) [Example 275] |  | < 5000 nM | 1000 to 10000 nM
15 | CCn1c(-c2cccnc2[C@H](C)OC)c2c3cc(ccc31)-c1cc(O)cc(c1)C[C@H](NC(=O)[C@H](C(C)C)N(C)C(=O)CN(C)C(=O)[C@@H]1CN1CC1COC1)C(=O)N1CCC[C@H](N1)C(=O)OCC(C)(C)C2 (stereo partly drawn) [Example 278] |  | < 5000 nM | 1000 to 10000 nM
16 | CCn1c(-c2cccnc2[C@H](C)OC)c2c3cc(ccc31)-c1cc(O)cc(c1)C[C@H](NC(=O)[C@H](C(C)C)N(C)C(=O)CN(C)C(=O)[C@@H]1N[C@@H]1C1COC1)C(=O)N1CCC[C@H](N1)C(=O)OCC(C)(C)C2 [Example 281] |  | < 5000 nM | 100 to 1000 nM
17 | CCn1c(-c2cccnc2[C@H](C)OC)c2c3cc(ccc31)-c1cc(O)cc(c1)C[C@H](NC(=O)[C@H](C(C)C)N(C)C(=O)CN(C)C(=O)[C@H]1N[C@H]1C1COC1)C(=O)N1CCC[C@H](N1)C(=O)OCC(C)(C)C2 [Example 282] |  | < 5000 nM | 1000 to 10000 nM
18 | CCn1c(-c2cccnc2[C@H](C)OC)c2c3cc(ccc31)-c1cc(O)cc(c1)C[C@H](NC(=O)[C@H](C(C)C)N(C)C(=O)CN(C)C(=O)[C@H]1N[C@@H]1C1COC1)C(=O)N1CCC[C@H](N1)C(=O)OCC(C)(C)C2 [Example 284] |  | < 5000 nM | 1000 to 10000 nM

Source: US20250195521A1 (Revolution Medicines, Inc., priority 2020, published 2025)
